Measurements: US20180243421A1, “IMMUNOSTIMULATING AGENT” (AJINOMOTO CO., INC., priority 2015, published 2018)

Legend:
Format in all cases: in vivo, BALB/c mice
[1] = test system: anti-influenza IgA antibody; test: Transnasal influenza vaccine adjuvant activity: anti-influenza IgA antibody in nasal cavity wash; conditions: Example 4, influenza HA vaccine 20 μl, SZ62 1 μg, Poly(I:C) 5 μg, two weeks from secondary immunization
[2] = test system: anti-OVA-specific IgG1 subclass antibody; test: Adjuvant activity: anti-OVA-specific IgG1 subclass antibody in serum after secondary immunization (Examples 12, 19, 20, 21); conditions: two weeks from secondary immunization
Procedure: 8-Week-old female BALB/c mice were divided into groups (N=6), and each group was primarily immunized by dorsal-subcutaneous administration of (1) ovalbumin (OVA) (5 μg) dissolved in saline as an antigen (OVA single administration group), (2) OVA (5 μg) added to 5% αCD-added saline, (3) OVA (5 μg) added to 10% HP-β-CD-added saline, (4) OVA (5 μg) and SZ62 (0.256 μmol) dissolved or dispersed in 5% αCD-added saline, and (5) OVA (5 μg) and SZ62 (0.256 μmol) dissolved in 10% HP-β-CD-added saline, each per mouse. One week later, the secondary immunization was carried out by dorsal-subcutaneous administration of solutions or dispersions similar to those of the above-mentioned (1) to (5) again. Two weeks from the secondary immunization, the blood was extracted under anesthesia, and the obtained serum samples were measured for anti-OVA-specific IgG1 subclass antibody.
(§1) Measurement Method of Concentration of anti-OVA-specific IgG1 Subclass Antibody and anti-OVA-specific IgG2a Subclass Antibody
(§2) To a 96 well plate was added 5 μg/ml OVA at 100 μl/well, and the mixture was incubated at 4° C. overnight. After incubation, the mixture was washed three times with 200 μl of PBS-T (PBS+0.05% (v/v) Tween 20) per well, and blocked with 100 μl of 5% FCS/PBS solution per well at room temperature for 1 to for 2 hr. Thereafter, the mixture was washed three times with PBS-T (200 μl/well), a diluted serum sample (100 μl/well) or the same amount of 5% FCS/PBS solution as a control was added, to and the mixture was incubated at 37° C. for 1 hr. To calculate concentration of the antibody, the standard of an anti-OVA-specific IgG1 subclass antibody diluted with 2% FCS/PBS solution was added at 100 ng/ml, 50 ng/ml, 25 ng/ml, 12.5 ng/ml, 6.25 ng/ml, 3.125 ng/ml, 1.56 ng/ml, 0.781 ng/ml, 0.391 ng/ml, 0.195 ng/ml, 0.098 ng/ml, 0 ng/ml, per 1 well. When an anti-OVA-specific IgG2a subclass antibody was measured, the standard of an anti-OVA-specific IgG2a subclass antibody was added at 50 ng/ml, 25 ng/ml, 12,5 ng/ml, 6.25 ng/ml, 3.125 ng/ml, 1.56 ng/ml, 0.781 ng/ml, 0.391 ng/ml, 0.195 ng/ml, 0.098 ng/ml, 0.049 ng/ml, 0 ng/ml, per 1 well. […] Thereafter, the mixture was washed five times with PBS-T (200 μl/well), a diluted anti-biotin-HRP antibody was added (100 μl/well), and the mixture was incubated at 37° C. for another 30 min. Thereafter, the mixture was washed five times with PBS-T (200 μl/well), TMB substrate solution was added (100 μl/well), and the mixture was incubated at room temperature for 10- for 15 min. Thereafter, a reaction quenching liquid (2N sulfuric acid solution) was added (50 μl/well) to discontinue a color developing reaction, and the absorbance (OD Value=450 nm) was measured by a microplate reader. A standard curve was drawn from the measured OD values, and the concentration was calculated.
8-Week-old female BALB/c mice were divided into groups (N=6), and each group was primarily immunized by dorsal-subcutaneous administration of (1) ovalbumin (OVA) (5 μg) dissolved in saline as an antigen (OVA single administration group), (2) OVA 10 μg and Addavax™ (mixed with saline at 1:1) dissolved in saline (Addavax™ administration group), (3) OVA (5 μg) and SZ86 (0.256 μmol) dissolved or dispersed in 5% αCD-added saline (SZ86 administration group), (4) OVA (5 μg) and SZ90 (0.256 μmol) dissolved or dispersed in 5% αCD-added saline (SZ90 administration group), (5) OVA (5 μg) and SZ92 (0.256 μmol) dissolved or dispersed in 5% αCD-added saline (SZ92 administration group), (6) OVA (5 μg) and SZ99 (0.256 μmol) dissolved or dispersed in 5% αCD-added saline (SZ99 administration group), (7) OVA (5 μg) and SZ106 (0.256 μmol) dissolved or dispersed in 5% αCD-added saline (SZ106 administration group), each per mouse. One week later, the secondary immunization was carried out by dorsal-subcutaneous administration of solutions or dispersions similar to those of the above-mentioned (1)-(7) again.

[3] = test system: anti-OVA-specific IgG1 subclass antibody; test: Adjuvant activity after primary immunization: anti-OVA-specific IgG1 subclass antibody in serum (Examples 13-18); conditions: OVA 5 μg + 0.256 μmol in 5% αCD saline s.c., serum after 12 days
Procedure: 8-Week-old female BALB/c mice were divided into groups (N=6), and each group was primarily immunized by dorsal-subcutaneous administration of (1) ovalbumin (OVA) (5 μg) dissolved in saline as an antigen (OVA single administration group), (2) OVA (5 μg) and SZ83 (0.256 μmol) dissolved or dispersed in 5% αCD-added saline (SZ83 administration group), (3) OVA (5 μg) and SZ84 (0.256 μmol) dissolved or dispersed in 5% αCD-added saline (SZ84 administration group), (4) OVA (5 μg) and SZ86 (0.256 μmol) dissolved or dispersed in 5% αCD-added saline (SZ86 administration group), (5) OVA (5 μg) and SZ89 (0.256 μmol) dissolved or dispersed in 5% αCD-added saline (SZ89 administration group), (6) OVA (5 μg) and SZ90 (0.256 μmol) dissolved or dispersed in 5% αCD-added saline (SZ90 administration group), each per mouse. After 12 days, blood samples were collected under anesthesia, and the obtained serum samples were subjected to the measurement of an anti-OVA-specific IgG1 subclass antibody.
as §1, §2
8-Week-old female BALB/c mice were divided into groups (N=6), and each group was primarily immunized by dorsal-subcutaneous administration of (1) ovalbumin (OVA) (5 μg) dissolved in saline as an antigen (OVA single administration group), (2) OVA (5 μg) and SZ92 (0.256 μmol) dissolved or dispersed in 5% αCD-added saline (SZ92 administration group), (3) OVA (5 μg) and SZ94 (0.256 μmol) dissolved or dispersed in 5% αCD-added saline (SZ94 administration group), (4) OVA (5 μg) and SZ95 (0.256 μmol) dissolved or dispersed in 5% αCD-added saline (SZ95 administration group), (5) OVA (5 μg) and SZ96 (0.256 μmol) dissolved or dispersed in 5% αCD-added saline (SZ96 administration group), each per mouse. After 12 days, blood samples were collected under anesthesia, and the obtained serum samples were subjected to the measurement of anti-OVA-specific IgG1 subclass antibody.

[4] = Example 19, OVA 5 μg + 0.256 μmol in 5% αCD saline s.c. (Addavax 1:1 with OVA 10 μg)
[5] = Example 20, OVA 5 μg + 0.256 μmol in 5% αCD saline s.c. (Addavax 1:1 with OVA 10 μg)

SMILES | anti-OVA-specific IgG1 subclass antibody production as compared to the OVA single administration group [2, 4] | anti-OVA-specific IgG1 subclass antibody production as compared to the OVA single administration group [2, 5] | anti-OVA-specific IgG1 subclass antibody production after primary immunization as compared to the OVA single administration group ([3]; Example 15) | further results
CCCCCCCCCCCCCCCC(=O)NC(=N)NCCCCN [SZ62, N-hexadecanoylagmatine] | – | – | – | anti-influenza IgA antibody production in nasal cavity wash as compared to the influenza vaccine single administration group [1]: significantly increased; anti-OVA-specific IgG1 subclass antibody production as compared to the OVA single administration group ([2]; Example 12, SZ62 0.256 μmol dispersed in 5% αCD-added saline, OVA 5 μg s.c.): significantly increased; anti-OVA-specific IgG1 subclass antibody production as compared to the OVA single administration group ([2]; Example 12, SZ62 0.256 μmol dissolved in 10% HP-β-CD-added saline, OVA 5 μg s.c.): significantly increased
CCCCCCCCCCCCCCCCCCC(CCCCCCCCCCCCCCCCCC)C(=O)N[C@@H](CC(C)C)C(=O)OC [SZ86, N-(2-octadecyleicosanoyl)-L-leucine methyl ester] | tended to increase | tended to increase | – | anti-OVA-specific IgG1 subclass antibody production after primary immunization ([3]; Example 13): show a tendency to increase
CCCCCCCCCCCCCCCC(=O)N[C@@H](CC(C)C)C(=O)N(CC)CC [SZ92, N^2-hexadecanoyl-N^1,N^1-diethyl-L-leucinamide] | significantly increased | significantly increased | – | anti-OVA-specific IgG1 subclass antibody production after primary immunization as compared to the OVA single administration group ([3]; Example 14): significantly increased
CCCCCCCCCCCCCCCC(=O)N[C@@H](CC(C)C)C(=O)OCCCCCC [SZ97, N-hexadecanoyl-L-leucine hexyl ester] | – | significantly increased | show a tendency to increase | –
CCCCCCCCCCCCCCCC(=O)N[C@@H](CCCNC(=N)N)C(=O)OCCCCCC.Cl [SZ99, N^2-hexadecanoyl-L-arginine hexyl ester hydrochloride salt] | tended to increase | – | significantly increased | –
CCCCCCCCCCCCCCCCCCCCCC(=O)N[C@@H](CCC(=O)O)C(=O)N(CC)CC [SZ106, N^2-docosanoyl-N^1,N^1-diethyl-L-glutamic acid 1-amide] | tended to increase | tended to increase | show a tendency to increase | –
CCCCCCCCCCCCCCCCCCCCCC(=O)NC(=N)NCCCCN.Cl [SZ108, N-docosanoylagmatine hydrochloride salt] | – | tended to increase | – | anti-OVA-specific IgG1 subclass antibody production after primary immunization as compared to the OVA single administration group ([3]; Example 16): significantly increased
